Measured values: ChEMBL document CHEMBL3045142, “Several Antifeedants from Neem Oil,Azadirachta indicaA. Juss., againstReticulitermes speratusKolbe (Isoptera: Rhinotermitidae)” (1992)

Key:
Assay type in all cases: functional
Reticulitermes speratus [1] = assay: Antifeedant activity against Reticulitermes speratus assessed as antifeedant consumption at 200 ug/disk after 30 days by no-choice bioassay
Reticulitermes speratus [2] = assay: Antifeedant activity against Reticulitermes speratus assessed as antifeedant consumption at 150 ug/disk after 30 days by no-choice bioassay
Reticulitermes speratus [3] = assay: Antifeedant activity against Reticulitermes speratus assessed as antifeedant consumption at 75 ug/disk after 30 days by no-choice bioassay
Reticulitermes speratus [4] = assay: Antifeedant activity against Reticulitermes speratus assessed as antifeedant consumption at 100 ug/disk after 30 days by no-choice bioassay
Reticulitermes speratus [5] = assay: Antifeedant activity against Reticulitermes speratus assessed as antifeedant consumption at 50 ug/disk after 30 days by no-choice bioassay
Reticulitermes speratus [6] = assay: Antifeedant activity against Reticulitermes speratus assessed per disk after 30 days by no-choice bioassay
Reticulitermes speratus [7] = assay: Antifeedant activity against Reticulitermes speratus assessed as reduction in feeding at 100 to 200 ug/disk after 30 days by no-choice bioassay relative to vehicle-control; design: scale not given: the % may be the effect or the level left
Reticulitermes speratus [8] = assay: Antifeedant activity against Reticulitermes speratus assessed as survival at 400 ug/disk after 30 days by no-choice bioassay (reference value: 92.5%); conditions: 720 h
Reticulitermes speratus [9] = assay: Antifeedant activity against Reticulitermes speratus assessed as survival at 500 ug/disk after 30 days by no-choice bioassay (reference value: 92.5%); conditions: 720 h
Reticulitermes speratus [10] = assay: Antifeedant activity against Reticulitermes speratus assessed as survival at 300 ug/disk after 30 days by no-choice bioassay (reference value: 92.5%); conditions: 720 h
Reticulitermes speratus [11] = assay: Antifeedant activity against Reticulitermes speratus assessed as survival at 200 ug/disk after 30 days by no-choice bioassay (reference value: 92.5%); conditions: 720 h
Reticulitermes speratus [12] = assay: Antifeedant activity against Reticulitermes speratus assessed as survival at 100 ug/disk after 30 days by no-choice bioassay (reference value: 92.5%); conditions: 720 h
Reticulitermes speratus [13] = assay: Antifeedant activity against Reticulitermes speratus assessed as antifeedant consumption at 300 ug/disk after 30 days by no-choice bioassay
Reticulitermes speratus [14] = assay: Antifeedant activity against Reticulitermes speratus assessed as survival at 50 ug/disk after 30 days by no-choice bioassay (reference value: 92.5%); conditions: 720 h
Reticulitermes speratus [15] = assay: Antifeedant activity against Reticulitermes speratus assessed as antifeedant consumption at 25 ug/disk after 30 days by no-choice bioassay
Reticulitermes speratus [16] = assay: Antifeedant activity against Reticulitermes speratus assessed as antifeedant consumption at 10 ug/disk after 30 days by no-choice bioassay
Reticulitermes speratus [17] = assay: Antifeedant activity against Reticulitermes speratus assessed as antifeedant consumption at 7.5 ug/disk after 30 days by no-choice bioassay
Reticulitermes speratus [18] = assay: Antifeedant activity against Reticulitermes speratus assessed as antifeedant consumption at 5 ug/disk after 30 days by no-choice bioassay
Reticulitermes speratus [19] = assay: Antifeedant activity against Reticulitermes speratus assessed as survival at 10 ug/disk after 30 days by no-choice bioassay (reference value: 92.5%); conditions: 720 h
Reticulitermes speratus [20] = assay: Antifeedant activity against Reticulitermes speratus assessed as survival at 25 ug/disk after 30 days by no-choice bioassay (reference value: 92.5%); conditions: 720 h
Reticulitermes speratus [21] = assay: Antifeedant activity against Reticulitermes speratus assessed as survival at 7.5 ug/disk after 30 days by no-choice bioassay (reference value: 92.5%); conditions: 720 h
Reticulitermes speratus [22] = assay: Antifeedant activity against Reticulitermes speratus assessed as survival at 5 ug/disk after 30 days by no-choice bioassay (reference value: 92.5%); conditions: 720 h
Reticulitermes speratus [23] = assay: Antifeedant activity against Reticulitermes speratus assessed as reduction in feeding at 50 ug/disk after 30 days by no-choice bioassay relative to vehicle-control; design: scale not given: the % may be the effect or the level left
Reticulitermes speratus [24] = assay: Antifeedant activity against Reticulitermes speratus assessed as antifeedant consumption at 125 ug/disk after 30 days by no-choice bioassay
Reticulitermes speratus [25] = assay: Antifeedant activity against Reticulitermes speratus assessed as survival at 150 ug/disk after 30 days by no-choice bioassay (reference value: 92.5%); conditions: 720 h
Reticulitermes speratus [26] = assay: Antifeedant activity against Reticulitermes speratus assessed as survival at 125 ug/disk after 30 days by no-choice bioassay (reference value: 92.5%); conditions: 720 h
Reticulitermes speratus [27] = assay: Antifeedant activity against Reticulitermes speratus assessed as survival at 75 ug/disk after 30 days by no-choice bioassay (reference value: 92.5%); conditions: 720 h
Reticulitermes speratus [28] = assay: Antifeedant activity against Reticulitermes speratus assessed as antifeedant consumption at 500 ug/disk after 30 days by no-choice bioassay
Reticulitermes speratus [29] = assay: Antifeedant activity against Reticulitermes speratus assessed as antifeedant consumption at 400 ug/disk after 30 days by no-choice bioassay

## COC(=O)C[C@H]1[C@]2(C)C3=C(C)[C@H](c4ccoc4)C[C@@H]3O[C@@H]2[C@H](O)[C@@H]2[C@@]1(C)C(=O)C=C[C@@]2(C)O
Reticulitermes speratus [1]
  Activity: 6.4 µg
Reticulitermes speratus [2]
  Activity: 10 µg
Reticulitermes speratus [3]
  Activity: 25.2 µg
Reticulitermes speratus [4]
  Activity: 19.9 µg
Reticulitermes speratus [5]
  Activity: 16.3 µg
Reticulitermes speratus [6]
  PC50: 96 µg
  PC95: 245.4 µg
Reticulitermes speratus [7]
  Activity: 80%

## COC(=O)C[C@H]1[C@]2(C)C3=C(C)[C@H](c4ccoc4)C[C@H]3O[C@@H]2[C@H](OC(C)=O)[C@@H]2[C@]1(C)C(=O)C=C[C@@]2(C)C(=O)OC [NIMBIN]
Reticulitermes speratus [8]
  survival at 400 µg/disc: 83%
Reticulitermes speratus [9]
  survival at 500 µg/disc: 80.5%
Reticulitermes speratus [10]
  survival at 300 µg/disc: 83%
Reticulitermes speratus [11]
  survival at 200 µg/disc: 84.5%
Reticulitermes speratus [12]
  survival at 100 µg/disc: 84%

## CC(=O)O[C@@H]1C[C@H]2C(C)(C)C(=O)C=C[C@]2(C)[C@H]2CC[C@]3(C)C(=CC(=O)[C@@]3(O)c3ccoc3)[C@@]21C [17-HYDROXYAZADIRADIONE]
Reticulitermes speratus [1]
  Activity: 9.4 µg
Reticulitermes speratus [13]
  Activity: 8.6 µg
Reticulitermes speratus [4]
  Activity: 16.5 µg
Reticulitermes speratus [5]
  Activity: 17.8 µg
Reticulitermes speratus [6]
  PC50: 67.8 µg
  PC95: 235.6 µg
Reticulitermes speratus [10]
  survival at 300 µg/disc: 33.5%
Reticulitermes speratus [11]
  survival at 200 µg/disc: 50%
Reticulitermes speratus [12]
  survival at 100 µg/disc: 61%
Reticulitermes speratus [14]
  survival at 50 µg/disc: 73%
Reticulitermes speratus [7]
  Activity: 80%

## C/C=C(\C)C(=O)O[C@H]1C[C@@H](O)[C@@]2(C)CO[C@H]3[C@H]4O[C@@H]5C[C@@H](c6ccoc6)C(C)=C5[C@@]4(C)[C@H](CC(=O)OC)[C@]1(C)[C@@H]32 [DESACETYL SALANNIN]
Reticulitermes speratus [6]
  PC50: 55.2 µg
  PC95: 1373.1 µg
Reticulitermes speratus [8]
  survival at 400 µg/disc: 44%
Reticulitermes speratus [10]
  survival at 300 µg/disc: 49%
Reticulitermes speratus [11]
  survival at 200 µg/disc: 58%
Reticulitermes speratus [12]
  survival at 100 µg/disc: 72%

## COC(=O)C[C@H]1[C@]2(C)C3=C(C)[C@H](c4ccoc4)C[C@H]3O[C@@H]2[C@H](O)[C@@H]2[C@]1(C)C(=O)C=C[C@@]2(C)C(=O)OC [DEACETYLNIMBIN]
Reticulitermes speratus [6]
  PC50: 280.6 µg
  PC95: 1581.2 µg
Reticulitermes speratus [10]
  survival at 300 µg/disc: 74%
Reticulitermes speratus [11]
  survival at 200 µg/disc: 78.5%
Reticulitermes speratus [12]
  survival at 100 µg/disc: 85%
Reticulitermes speratus [14]
  survival at 50 µg/disc: 87.5%

## CC1(C)C(=O)C=C[C@]2(C)[C@H]3CC[C@@]4(C)[C@H](c5ccoc5)OC(=O)[C@H]5O[C@]54[C@]3(C)[C@H](O)C[C@@H]12 [DEACETYLGEDUNIN]
Reticulitermes speratus [4]
  Activity: 7.2 µg
Reticulitermes speratus [15]
  Activity: 4.7 µg
Reticulitermes speratus [5]
  Activity: 4.7 µg
Reticulitermes speratus [16]
  Activity: 3.2 µg
Reticulitermes speratus [17]
  Activity: 3.1 µg
Reticulitermes speratus [6]
  PC50: 22.5 µg
  PC95: 113.7 µg
Reticulitermes speratus [18]
  Activity: 2.2 µg
Reticulitermes speratus [12]
  survival at 100 µg/disc: 12%
Reticulitermes speratus [14]
  survival at 50 µg/disc: 20%
Reticulitermes speratus [19]
  survival at 10 µg/disc: 73.3%
Reticulitermes speratus [20]
  survival at 25 µg/disc: 45.3%
Reticulitermes speratus [21]
  survival at 7.5 µg/disc: 87.3%
Reticulitermes speratus [22]
  survival at 5 µg/disc: 91.3%
Reticulitermes speratus [23]
  Activity: 80.38%

## C/C=C(/C)C(=O)O[C@H]1C[C@@H](OC(C)=O)[C@@]2(C)CO[C@H]3[C@H]4O[C@@H]5C[C@@H](c6ccoc6)C(C)=C5[C@@]4(C)[C@H](CC(=O)OC)[C@]1(C)[C@@H]32 [SALANNIN]
Reticulitermes speratus [2]
  Activity: 0.5 µg
Reticulitermes speratus [3]
  Activity: 0.8 µg
Reticulitermes speratus [24]
  Activity: 0.8 µg
Reticulitermes speratus [4]
  Activity: 1.4 µg
Reticulitermes speratus [15]
  Activity: 3.7 µg
Reticulitermes speratus [5]
  Activity: 1.8 µg
Reticulitermes speratus [6]
  PC50: 19.5 µg
  PC95: 203.3 µg
Reticulitermes speratus [25]
  survival at 150 µg/disc: 30.7%
Reticulitermes speratus [26]
  survival at 125 µg/disc: 17.3%
Reticulitermes speratus [12]
  survival at 100 µg/disc: 40%
Reticulitermes speratus [27]
  survival at 75 µg/disc: 29.3%
Reticulitermes speratus [14]
  survival at 50 µg/disc: 58.7%
Reticulitermes speratus [20]
  survival at 25 µg/disc: 90.7%
Reticulitermes speratus [7]
  Activity: 80%

## CC(=O)O[C@@H]1C[C@H]2C(C)(C)C(=O)C=C[C@]2(C)[C@H]2CC[C@]3(C)C(=CC(=O)[C@@H]3c3ccoc3)[C@@]21C [17-EPIAZADIRADIONE]
Reticulitermes speratus [8]
  survival at 400 µg/disc: 86.5%
Reticulitermes speratus [10]
  survival at 300 µg/disc: 86.5%
Reticulitermes speratus [11]
  survival at 200 µg/disc: 85.5%
Reticulitermes speratus [12]
  survival at 100 µg/disc: 85.5%
Reticulitermes speratus [14]
  survival at 50 µg/disc: 87%

## CC(=O)O[C@@H]1C[C@H]2C(C)(C)C(=O)C=C[C@]2(C)[C@H]2CC[C@@]3(C)[C@H](c4ccoc4)OC(=O)[C@H]4O[C@]43[C@@]21C [GEDUNIN]
Reticulitermes speratus [2]
  Activity: 5 µg
Reticulitermes speratus [3]
  Activity: 10.5 µg
Reticulitermes speratus [24]
  Activity: 6.8 µg
Reticulitermes speratus [4]
  Activity: 11 µg
Reticulitermes speratus [15]
  Activity: 8.5 µg
Reticulitermes speratus [5]
  Activity: 9 µg
Reticulitermes speratus [6]
  PC50: 49 µg
  PC95: 218.4 µg
Reticulitermes speratus [25]
  survival at 150 µg/disc: 13.3%
Reticulitermes speratus [26]
  survival at 125 µg/disc: 23.3%
Reticulitermes speratus [12]
  survival at 100 µg/disc: 39.3%
Reticulitermes speratus [27]
  survival at 75 µg/disc: 49.3%
Reticulitermes speratus [14]
  survival at 50 µg/disc: 51.3%
Reticulitermes speratus [20]
  survival at 25 µg/disc: 82%
Reticulitermes speratus [7]
  Activity: 80%

## CC(=O)O[C@@H]1C[C@H]2C(C)(C)C(=O)C=C[C@]2(C)[C@H]2CC[C@@]3(C)[C@H](c4ccoc4)C(=O)[C@H]4O[C@]43[C@@]21C [EPOXYAZADIRADIONE]
Reticulitermes speratus [8]
  survival at 400 µg/disc: 64%
Reticulitermes speratus [10]
  survival at 300 µg/disc: 76.5%
Reticulitermes speratus [11]
  survival at 200 µg/disc: 77%
Reticulitermes speratus [12]
  survival at 100 µg/disc: 75.5%

## CC(=O)O[C@@H]1C[C@H]2C(C)(C)C(=O)C=C[C@]2(C)[C@H]2CC[C@]3(C)C(=CC(=O)[C@H]3c3ccoc3)[C@@]21C [AZADIRADIONE]
Reticulitermes speratus [28]
  Activity: 2 µg
Reticulitermes speratus [29]
  Activity: 49.5 µg
Reticulitermes speratus [1]
  Activity: 79.3 µg
Reticulitermes speratus [13]
  Activity: 62.9 µg
Reticulitermes speratus [4]
  Activity: 55.1 µg
Reticulitermes speratus [6]
  PC50: 238.5 µg
  PC95: 827.5 µg
Reticulitermes speratus [8]
  survival at 400 µg/disc: 24.5%
Reticulitermes speratus [9]
  survival at 500 µg/disc: 0.5%
Reticulitermes speratus [10]
  survival at 300 µg/disc: 39%
Reticulitermes speratus [11]
  survival at 200 µg/disc: 65.5%
Reticulitermes speratus [12]
  survival at 100 µg/disc: 73%
